We go through 19 molecules from ChEMBL document CHEMBL4043153, “Lead selection of antiparasitic compounds from a focused library of benzenesulfonyl derivatives of heterocycles” (Bioorg Med Chem Lett, 2017).

Each structure is given as a SMILES string. The source made the active and inactive calls. The calls are words filed in the database; no cut-off is given here.

Series [1] has as its system Trypanosoma cruzi. Put plainly: Antiparasitic activity against Trypanosoma cruzi Tulahuen C4 intracellular amastigotes infected in rat L6 cells assessed as growth inhibition at 0.8 ug/ml after 96 hrs by CPRG/Nonidet reagent based photometric analysis relative to control. Conditions: Tulahuen C4, L6, 96 h, read-out: GI. It counts as functional.
The subject of series [2] is Trypanosoma brucei rhodesiense. In words: Antiparasitic activity against Trypanosoma brucei rhodesiense STIB 900 trypomastigote bloodstream form assessed as growth inhibition at 0.8 ug/ml after 72 hrs by resazurin dye-based fluorometric analysis relative to control. The class given is functional. Particulars: STIB 900, 72 h, read-out: GI.
In series [3] the test system is Leishmania donovani. Put plainly: Antiparasitic activity against Leishmania donovani MHOM-ET-67/L82 axenic amastigotes assessed as growth inhibition at 0.8 ug/ml after 72 hrs by resazurin dye-based fluorometric analysis relative to control. It counts as functional. Conditions: MHOM-ET-67/L82, 72 h, read-out: GI. Background: Alamar Blue is a resazurin reagent that responds to reducing activity.

The test system of series [4] is Leishmania donovani. Put plainly: Antiparasitic activity against Leishmania donovani MHOM-ET-67/L82 axenic amastigotes assessed as growth inhibition at 4.8 ug/ml after 72 hrs by resazurin dye-based fluorometric analysis relative to control. It counts as functional. Particulars: MHOM-ET-67/L82, 72 h, read-out: GI.
The subject of series [5] is Plasmodium falciparum. Put plainly: Antiparasitic activity against intraerythrocytic form of chloroquine/pyrimethamine-resistant Plasmodium falciparum K1 infected in human RBC assessed as growth inhibition at 0.8 ug/ml preincubated for 48 hrs followed by [3H]-hypoxanthine addition measured after 24 hrs by liquid scintillation counting analysis relative to control. It counts as functional. Conditions: read-out: GI.

Series [6] relates to Plasmodium falciparum. In words: Antiparasitic activity against intraerythrocytic form of chloroquine/pyrimethamine-resistant Plasmodium falciparum K1 infected in human RBC preincubated for 48 hrs followed by [3H]-hypoxanthine addition measured after 24 hrs by liquid scintillation counting analysis. It counts as functional.
Series [7] concerns Plasmodium falciparum. Put plainly: Antiparasitic activity against intraerythrocytic form of chloroquine/pyrimethamine-resistant Plasmodium falciparum K1 infected in human RBC assessed as growth inhibition at 4.8 ug/ml preincubated for 48 hrs followed by [3H]-hypoxanthine addition measured after 24 hrs by liquid scintillation counting analysis relative to control. The class given is functional. Particulars: read-out: GI.

For series [8], the system named is Trypanosoma cruzi. In words: Antiparasitic activity against Trypanosoma cruzi Tulahuen C4 intracellular amastigotes infected in rat L6 cells assessed as growth inhibition at 4.8 ug/ml after 96 hrs by CPRG/Nonidet reagent based photometric analysis relative to control. It counts as functional. Particulars: Tulahuen C4, L6, 96 h, read-out: GI.
Series [9] has as its system Trypanosoma brucei rhodesiense. Put plainly: Antiparasitic activity against Trypanosoma brucei rhodesiense STIB 900 trypomastigote bloodstream form assessed as growth inhibition at 4.8 ug/ml after 72 hrs by resazurin dye-based fluorometric analysis relative to control. The class given is functional. Particulars: STIB 900, 72 h, read-out: GI.
A short description of series [10]: Selectivity index, ratio of IC50 for rat L6 cells to IC50 for Trypanosoma cruzi Tulahuen C4 intracellular amastigotes infected in rat L6 cells. Conditions: read-out: Ratio IC50. The class given is toxicity, cell-based.
Series [11] has as its system Trypanosoma cruzi. Put plainly: Antiparasitic activity against Trypanosoma cruzi Tulahuen C4 intracellular amastigotes infected in rat L6 cells after 96 hrs by CPRG/Nonidet reagent based photometric analysis. Conditions: Tulahuen C4, L6, 96 h. The class given is functional, cell-based.
For series [12], the system named is L6. Put plainly: Cytotoxicity against rat L6 cells assessed as cell viability after 72 hrs by Alamar blue assay. Particulars: L6, 72 h. The class given is cell-based.
Series [13] concerns Leishmania donovani. Put plainly: Antiparasitic activity against Leishmania donovani MHOM-ET-67/L82 axenic amastigotes after 72 hrs by Alamar blue assay. It counts as functional. Particulars: MHOM-ET-67/L82, 72 h.

On to `O=[N+]([O-])c1ccc(S(=O)(=O)n2ccc3ccccc32)cc1`, for which the inhibition of growth at 0.8 µg/mL in series [1] turned out to be 18.3%; in [2], 8.6%; in series [3], 24.2%; in series [5], 2.5%. The inhibition of growth at 4.8 µg/mL in [4] worked out at 77.6%; in [7] it was 60.4%; in [8], 75%; in series [9] it was 29.3%. In addition, the outcome in series [6] was Active.

For the molecule `O=S(=O)(c1ccccc1)n1ccc2ccccc21`, the result in series [6] was Active.

For `CC1CCc2ccccc2N1S(=O)(=O)c1ccc(C(F)(F)F)cc1` (stereo not given), the inhibition of growth at 0.8 µg/mL in series [1] was 5.3%; in [2], 5.5%; in series [3] it was 29%; in [5], 26.4%. For the same molecule, the selectivity ratio in series [10] turned out to be 2. The results for the half-maximal inhibitory concentration (IC50) in series [11] and in [12] were 5.89 µM and 12.2 µM, respectively. For the same molecule, the inhibition of growth at 4.8 µg/mL in [4] is 96%; in series [7], 98.8%; in series [8], 98.2%; in [9], 8.1%.

`O=S(=O)(c1ccccc1)n1nnc2ccccc21`: in [6], the result was Active.

Turning to `O=[N+]([O-])c1ccc(S(=O)(=O)n2nnc3ccccc32)cc1`, the result in series [6] was Active.

Consider `CC1Cc2ccccc2N1S(=O)(=O)c1ccc([N+](=O)[O-])cc1` (stereo not given), for which the inhibition of growth at 0.8 µg/mL in series [1] stood at 19.4%; in [2] it was 6.9%; in [3], 41.7%; in series [5], 18%. Besides, the selectivity ratio in [10] is 24.8. Moreover, the values for the IC50 in series [11] and in series [12] were 2.8 µM and 69.4 µM, respectively. Besides, the inhibition of growth at 4.8 µg/mL in series [4] worked out at 79.5%; in [7], 72.6%; in [8], 94.4%; in series [9], 68.2%. Moreover, the outcome in [6] was Active.

For `CC1CCc2ccccc2N1S(=O)(=O)c1cccc(C(F)(F)F)c1` (stereo not given), the inhibition of growth at 0.8 µg/mL worked out at 5.4% in [1], 1.8% in [2], 25.8% in series [3] and 5.8% in series [5]. For the same molecule, the selectivity ratio in series [10] stood at 1.98. For the same molecule, the IC50 – broadly, the concentration needed to halve the response being measured – came to 6.6 µM in series [11] and 13.1 µM in series [12]. For the same molecule, the inhibition of growth at 4.8 µg/mL turned out to be 82.3% in [4], 81.3% in [7], 95.6% in [8] and 0% in series [9].

In turn, `CCCCCCCCCCCCCCCCOP(=O)([O-])OCC[N+](C)(C)C` [MILTEFOSINE] returned an IC50 in series [13] of 0.25 µM. The inhibition of growth at 0.8 µg/mL in series [3] was 60.1%. The inhibition of growth at 4.8 µg/mL in [4] came out at 93.3%.

For the molecule `O=[N+]([O-])c1cccc(S(=O)(=O)N2CCc3ccccc32)c1`, the inhibition of growth at 0.8 µg/mL in series [1] was determined as 36.4%; in [2] it was 0%; in series [3] it was 15.9%; in series [5] it was 14.7%. Further, the selectivity ratio in series [10] was found to be 14. For the same molecule, the IC50 in series [11] turned out to be 1.08 µM; in [12], 15.1 µM. Moreover, the inhibition of growth at 4.8 µg/mL in series [4] is 95.4%; in series [7] it was 79.2%; in series [8], 100%; in [9] it was 4.3%.

On to `CC1Cc2ccccc2N1S(=O)(=O)c1ccccc1` (stereo not given), for which the inhibition of growth at 0.8 µg/mL in [1] came out at 0%; in series [2] it was 4.6%; in series [3], 12.5%; in series [5], 13.2%. The inhibition of growth at 4.8 µg/mL is 27.9% in series [4], 46.4% in series [7], 5.2% in series [8] and 0% in series [9]. In addition, the outcome in series [6] was Active.

In the case of `CC1Cc2ccccc2N1S(=O)(=O)c1ccc(Br)cc1` (stereo not given), the inhibition of growth at 0.8 µg/mL was 0% in series [1], 0% in [2], 17.6% in [3] and 9.1% in series [5]. Besides, in series [10], the selectivity ratio was 2.29. In addition, the values for the IC50 in series [11] and in series [12] were 5.76 µM and 13.2 µM, respectively. The inhibition of growth at 4.8 µg/mL in series [4] amounted to 81.4%; in [7], 76%; in series [8], 100%; in series [9], 0.9%.

With `CC1Cc2ccccc2N1S(=O)(=O)c1ccc(Cl)cc1` (stereo not given), the inhibition of growth at 0.8 µg/mL in series [1] amounted to 0%; in series [2], 6.5%; in series [3] it was 9%; in series [5] it was 17.7%. Further, the selectivity ratio in series [10] is 2.31. Further, the 50% inhibitory concentration (IC50) in series [11] was found to be 4.79 µM; in series [12], 11.1 µM. Moreover, the inhibition of growth at 4.8 µg/mL in series [4] is 83.3%; in series [7], 87.9%; in series [8] it was 100%; in [9] it was 4%.

Turning to `O=S(=O)(c1ccccc1)N1CCc2ccccc21`, the inhibition of growth at 0.8 µg/mL was determined as 0% in [1], 0% in [2], 7.4% in series [3] and 2.9% in series [5]. Moreover, the inhibition of growth at 4.8 µg/mL in series [4] was determined as 45.3%; in [7], 29.1%; in series [8], 10%; in [9], 0%. The result in series [6] was Active.

In the case of `O=[N+]([O-])c1ccc(S(=O)(=O)N2CCc3ccccc32)cc1`, the inhibition of growth at 0.8 µg/mL in series [1] was determined as 34.7%; in series [2], 27.4%; in series [3], 37.6%; in series [5] it was 0%. Moreover, in [10], the selectivity ratio was found to be 7.9. In addition, the IC50 in series [11] amounted to 1.15 µM; in series [12] it was 9.1 µM. Moreover, the inhibition of growth at 4.8 µg/mL in series [4] worked out at 100%; in series [7], 69.7%; in series [8] it was 100%; in series [9], 98%. Moreover, the result in series [6] was Active.

As to `COc1ccc(S(=O)(=O)N2CCc3ccccc32)cc1`, the inhibition of growth at 0.8 µg/mL came out at 12.1% in series [1], 0% in [2], 18.6% in [3] and 0% in series [5]. For the same molecule, the inhibition of growth at 4.8 µg/mL was determined as 42.6% in series [4], 11.6% in series [7], 27.4% in series [8] and 0% in series [9].

Turning to `COc1ccc(S(=O)(=O)N2c3ccccc3CC2C)cc1` (stereo not given), the inhibition of growth at 0.8 µg/mL amounted to 1.8% in [1], 1.2% in [2], 2.9% in series [3] and 5.3% in series [5]. In addition, the selectivity ratio in series [10] is 0.04. Moreover, the half-maximal inhibitory concentration (IC50) was found to be 9.46 µM in [11] and 0.44 µM in [12]. In addition, the inhibition of growth at 4.8 µg/mL in [4] is 35%; in [7] it was 49.3%; in [8] it was 100%; in series [9], 4.4%.

Take `O=S(=O)(c1ccc(C(F)(F)F)cc1)N1CCCc2ccccc21`: the inhibition of growth at 0.8 µg/mL in series [1] was found to be 0%; in series [2] it was 7.2%; in [3], 20.1%; in [5], 7.2%. The inhibition of growth at 4.8 µg/mL in series [4] was found to be 85%; in [7] it was 75.3%; in series [8], 22.6%; in series [9] it was 18.1%.

With `O=S(=O)(c1ccc(C(F)(F)F)cc1)n1ccc2ccccc21`, the inhibition of growth at 0.8 µg/mL in series [1] was 0%; in series [2], 1.4%; in series [3], 15.9%; in series [5], 4.3%. Moreover, the inhibition of growth at 4.8 µg/mL in series [4] came out at 52.8%; in series [7], 53.2%; in series [8], 0%; in series [9] it was 0%.

With `O=[N+]([O-])c1ccccc1S(=O)(=O)N1CCc2ccccc21`, the inhibition of growth at 0.8 µg/mL in series [1] was 0%; in series [2], 10.4%; in [3], 4%; in series [5] it was 4%. For the same molecule, the inhibition of growth at 4.8 µg/mL in [4] was determined as 81.5%; in [7] it was 48%; in series [8] it was 24.5%; in [9], 17.9%.
